Drawing on patent US20260317340A1, “COMPOUNDS, COMPOSITIONS, AND METHODS OF TREATING DISORDERS” (Chengdu Anticancer Bioscience, Ltd., priority 2023, published 2026), this text covers minimal effective concentration for 19 compounds.

Assay [1] has as its system RPE-Neo or RPE-MYC or RPE-MYC expressing an EGFP-Histone 2B fusion protein. The experiment in a line: Phenotypic screening assay: arrest in mitosis, change in DNA content (polyploidy), cell death. In kind it is cell-based. Particulars: 20 nM to 20 μM, 24, 48 or 72 hours. A digest of the protocol: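 RPE-Neo, RPE-MYC or RPE-MYC EGFP-H2B cells plated 18-24 h before treatment with compounds at 20 nM to 20 μM. Mitotic arrest or DNA-content change scored by automated imaging at 24, 48 or 72 h; proliferation by MTT. Values binned into A–D ranges.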

Assay [2] relates to RPE-Neo or RPE-MYC cells. The experiment in a line: MTT assay of cellular proliferation (proliferative arrest). Format: cell-based. Conditions: read-out: Min. Effective conc. for Proliferative arrest (>50%). For orientation: Tetrazolium assays rely on reduction of a dye to a coloured formazan, in cell work by metabolically active cells.
[3] abbreviates: read-out: Min. Effective conc. for Along with Cell Death.
The mark [4] stands for this setting: ≥5%, read-out: Min. Effective conc. for Mitotic Arrest (≥5%).
Setting [5] is: ≥5%, read-out: Min. Effective conc. for Polyploidy (≥5%).

Read-outs that look alike come from different tables or passages of the source.

On to `Cc1cnc(C2=Cc3ccc(-c4cnn(CC(C)(C)O)c4)cc3N(Cc3ccc(C)c(F)c3)C(=O)C2)o1` [Compound 101, 1-(3-fluoro-4-methylbenzyl)-8-(1-(2-hydroxy-2-methylpropyl)-1H-pyrazol-4-yl)-4-(5-methyloxazol-2-yl)-1,3-dihydro-2H-benzo[b]azepin-2-one], for which the minimal effective concentration in assay [1] (setting [3]), in assay [1] (setting [4]), in assay [1] (setting [5]) and in assay [2] was 0.001 to 1 µM throughout.
With `Cc1cnc(C2=Cc3ccc(-c4cccnc4)cc3N(Cc3ccc(C)c(F)c3)C(=O)C2)o1` [Compound 23, 1-(3-fluoro-4-methylbenzyl)-4-(5-methyloxazol-2-yl)-8-(pyridin-3-yl)-1,3-dihydro-2H-benzo[b]azepin-2-one], the minimal effective concentration in assay [1] (setting [3]), in assay [1] (setting [4]), in assay [1] (setting [5]) and in assay [2] was 0.001 to 1 µM each time.
In the case of `COc1ccc(CN2C(=O)CC(c3ncc(C)o3)=Cc3ccc(-c4cnn(C5CNC5)c4)cc32)cc1` [Compound 70, 8-(1-(Azetidin-3-yl)-1H-pyrazol-4-yl)-1-(4-methoxybenzyl)-4-(5-methyloxazol-2-yl)-1,3-dihydro-2H-benzo[b]azepin-2-one], the minimal effective concentration in assay [1] (setting [3]), in assay [1] (setting [4]), in assay [1] (setting [5]) and in assay [2] was 0.001 to 1 µM in each case.
As for `COc1ccc(CN2C(=O)CC(c3ncc(C)o3)=Cc3ccc(-c4cnn(C5(CC#N)CN(S(=O)(=O)N(C)C)C5)c4)cc32)cc1` [Compound 91, 3-(Cyanomethyl)-3-(4-(1-(4-methoxybenzyl)-4-(5-methyloxazol-2-yl)-2-oxo-2,3-dihydro-1H-benzo[b]azepin-8-yl)-1H-pyrazol-1-yl)-N,N-dimethylazetidine-1-sulfonamide], the minimal effective concentration in assay [1] (setting [3]), in assay [1] (setting [4]), in assay [1] (setting [5]) and in assay [2] was 0.001 to 1 µM in each case.
`Cc1cnc(C2=Cc3ccc(Br)cc3N(Cc3ccc(C)c(F)c3)C(=O)C2)o1` [Compound 19, 8-bromo-1-(3-fluoro-4-methylbenzyl)-4-(5-methyloxazol-2-yl)-1,3-dihydro-2H-benzo[b]azepin-2-one]: the minimal effective concentration in assay [1] (setting [3]), in assay [1] (setting [4]), in assay [1] (setting [5]) and in assay [2] was 0.001 to 1 µM in each case.
For `COc1ccc(CN2C(=O)CC(c3ncc(C)o3)=Cc3ccc(N)cc32)cc1` [Compound 26, 8-amino-1-(4-methoxybenzyl)-4-(5-methyloxazol-2-yl)-1,3-dihydro-2H-benzo[b]azepin-2-one], the minimal effective concentration in assay [1] (setting [3]), in assay [1] (setting [4]), in assay [1] (setting [5]) and in assay [2] was 0.001 to 1 µM throughout.
With `COc1ccc(CN2C(=O)CC(c3ncc(C)o3)=Cc3ccc(Br)cc32)cc1` [Compound 25, 8-bromo-1-(4-methoxybenzyl)-4-(5-methyloxazol-2-yl)-1,3-dihydro-2H-benzo[b]azepin-2-one], the minimal effective concentration in assay [1] (setting [3]), in assay [1] (setting [4]), in assay [1] (setting [5]) and in assay [2] was 0.001 to 1 µM throughout.
Take `COc1ccc(CN2C(=O)CC(c3ccon3)=Cc3ccc(-c4cnn(CC(C)(C)O)c4)cc32)cc1` [Compound 97, 8-(1-(2-Hydroxy-2-methylpropyl)-1H-pyrazol-4-yl)-4-(isoxazol-3-yl)-1-(4-methoxybenzyl)-1,3-dihydro-2H-benzo[b]azepin-2-one]: the minimal effective concentration in assay [1] (setting [3]), in assay [1] (setting [4]), in assay [1] (setting [5]) and in assay [2] was 0.001 to 1 µM throughout.
Regarding `Cc1ccc(CN2C(=O)CC(c3nnc(C4CC4)o3)=Cc3ccccc32)cc1F` [Compound 13, 4-(5-cyclopropyl-1,3,4-oxadiazol-2-yl)-1-(3-fluoro-4-methylbenzyl)-1,3-dihydro-2H-benzo[b]azepin-2-one], the minimal effective concentration in assay [1] (setting [3]), in assay [1] (setting [4]), in assay [1] (setting [5]) and in assay [2] was 0.001 to 1 µM throughout.
On to `Cc1ccc(CN2C(=O)CC(c3nnc(C4CC4)o3)=C(Br)c3ccc(OCCOCCOCCOc4ccc5c(c4)N(Cc4ccc(C)c(F)c4)C(=O)CC(c4nnc(C6CC6)o4)=C5Br)cc32)cc1F` [Compound 3, 8,8′-(((Ethane-1,2-diylbis(oxy))bis(ethane-2,1-diyl))bis(oxy))bis(5-bromo-4-(5-cyclopropyl-1,3,4-oxadiazol-2-yl)-1-(3-fluoro-4-methylbenzyl)-1,3-dihydro-2H-benzo[b]azepin-2-one)], for which the minimal effective concentration in assay [1] (setting [3]), in assay [1] (setting [4]), in assay [1] (setting [5]) and in assay [2] was 1 to 10 µM in each case.
Take `COc1ccc(CN2C(=O)CC(c3ncc(C)o3)=Cc3ccc(-c4ccn(C)c(=O)c4)cc32)cc1` [Compound 62, 1-(4-Methoxybenzyl)-8-(1-methyl-2-oxo-1,2-dihydropyridin-4-yl)-4-(5-methyloxazol-2-yl)-1,3-dihydro-2H-benzo[b]azepin-2-one]: the minimal effective concentration in assay [1] (setting [3]), in assay [1] (setting [4]), in assay [1] (setting [5]) and in assay [2] was 0.001 to 1 µM in each case.
As to `COc1ccc(CN2C(=O)CC(c3ncc(C)o3)=Cc3ccc(-c4cnn(CC(=O)O)c4)cc32)cc1` [Compound 69, 2-(4-(1-(4-Methoxybenzyl)-4-(5-methyloxazol-2-yl)-2-oxo-2,3-dihydro-1H-benzo[b]azepin-8-yl)-1H-pyrazol-1-yl)acetic acid], the minimal effective concentration in assay [1] (setting [3]), in assay [1] (setting [4]), in assay [1] (setting [5]) and in assay [2] was 1 to 10 µM throughout.
With `COc1ccc(CN2C(=O)CC(c3ncc(C)o3)=Cc3ccc(-c4cnn(C(C)C(=O)O)c4)cc32)cc1` (stereo not shown) [Compound 75, 2-(4-(1-(4-Methoxybenzyl)-4-(5-methyloxazol-2-yl)-2-oxo-2,3-dihydro-1H-benzo[b]azepin-8-yl)-1H-pyrazol-1-yl)propanoic acid], the minimal effective concentration in assay [1] (setting [3]), in assay [1] (setting [4]), in assay [1] (setting [5]) and in assay [2] was 1 to 10 µM each time.
In the case of `COc1ccc(CN2C(=O)CC(c3ncc(C)o3)=Cc3ccc(-c4cnn(C(C)C(C)O)c4)cc32)cc1` (stereo not shown) [Compound 83, 8-(1-(3-Hydroxybutan-2-yl)-1H-pyrazol-4-yl)-1-(4-methoxybenzyl)-4-(5-methyloxazol-2-yl)-1,3-dihydro-2H-benzo[b]azepin-2-one], the minimal effective concentration in assay [1] (setting [3]), in assay [1] (setting [4]), in assay [1] (setting [5]) and in assay [2] was 0.001 to 1 µM in each case.
As to `COc1ccc(CN2C(=O)CC(c3ncc(C)o3)=Cc3ccc(-c4ccnc(N)c4)cc32)cc1` [Compound 55, 8-(2-Aminopyridin-4-yl)-1-(4-methoxybenzyl)-4-(5-methyloxazol-2-yl)-1,3-dihydro-2H-benzo[b]azepin-2-one], the minimal effective concentration in assay [1] (setting [3]), in assay [1] (setting [4]), in assay [1] (setting [5]) and in assay [2] was 0.001 to 1 µM in each case.
On to `CCOC(C)n1cc(-c2ccc3c(c2)N(Cc2ccc(OC)cc2)C(=O)CC(c2ncc(C)o2)=C3)cn1` (stereo not shown) [Compound 58, 8-(1-(1-Ethoxyethyl)-1H-pyrazol-4-yl)-1-(4-methoxybenzyl)-4-(5-methyloxazol-2-yl)-1,3-dihydro-2H-benzo[b]azepin-2-one], for which the minimal effective concentration in assay [1] (setting [3]), in assay [1] (setting [4]), in assay [1] (setting [5]) and in assay [2] was 0.001 to 1 µM each time.
Consider `COc1ccc(CN2C(=O)CC(c3ncc(C)o3)=Cc3ccc(-c4cnn(CCN(C)C)c4)cc32)cc1` [Compound 66, 8-(1-(2-(Dimethylamino)ethyl)-1H-pyrazol-4-yl)-1-(4-methoxybenzyl)-4-(5-methyloxazol-2-yl)-1,3-dihydro-2H-benzo[b]azepin-2-one], for which the minimal effective concentration in assay [1] (setting [3]), in assay [1] (setting [4]), in assay [1] (setting [5]) and in assay [2] was 0.001 to 1 µM throughout.
For `COc1ccc(CN2C(=O)CC(c3ncc(C)o3)=Cc3ccc(-c4cnn(C(C)(C)C(N)=O)c4)cc32)cc1F` [Compound 107, 2-(4-(1-(3-fluoro-4-methoxybenzyl)-4-(5-methyloxazol-2-yl)-2-oxo-2,3-dihydro-1H-benzo[b]azepin-8-yl)-1H-pyrazol-1-yl)-2-methylpropanamide], the minimal effective concentration in assay [1] (setting [3]), in assay [1] (setting [4]), in assay [1] (setting [5]) and in assay [2] was 0.001 to 1 µM throughout.
As for `COc1ccc(CN2C(=O)CC(c3ncc(C)o3)=Cc3ccc(-c4cnn(CC(C)(C)O)c4)cc32)cc1F` [Compound 102, 1-(3-fluoro-4-methoxybenzyl)-8-(1-(2-hydroxy-2-methylpropyl)-1H-pyrazol-4-yl)-4-(5-methyloxazol-2-yl)-1,3-dihydro-2H-benzo[b]azepin-2-one], the minimal effective concentration in assay [1] (setting [3]), in assay [1] (setting [4]), in assay [1] (setting [5]) and in assay [2] was 0.001 to 1 µM throughout.
